From paper PMC4772870 (2015) come the findings set out here.

The assay has as its system d(ATGCAT)2 (DNA, duplex) ATGCAT. The experiment in a line: melting temperature. The settings on record: derived from two Tm (~30 free, ~45 complex); reviewed from authors' ref 23.

The structures appear in SMILES notation.

For the compound `Cc1cccc2nc3cccc(C(=O)NCCNCCNCCNC(=O)c4cccc5nc6cccc(C)c6nc45)c3nc12`, the dTm was ~ 15 °C.
